The results in this text go back to patent publication US4346094A, “3-Aryl-5-isothiazolecarboxylic acids and related compounds used to lower uric acid levels” (Eli Lilly and Company, priority 1980, dated 1982).

Where two headings read alike, the source gives them in different places.

The target in one data set is T1, xanthine oxidase (Bos taurus, UniProt P80457).
T1 construct: purchased Sigma Chemical Company, St. Louis, Mo; host or cells: milk (grade III, chromatographically purified)
Briefly: in vitro xanthine oxidase assay (rate of uric acid formation from xanthine). The data set is classed as biochemical. On the procedure: Since uric acid is produced by the oxidation of, first, hypoxanthine to xanthine and, second, of xanthine to uric acid via the enzyme, xanthine oxidase, an inhibitor of xanthine oxidase in vivo would obviously decrease the uric acid concentrations in the blood.
Xanthine oxidase activity was measured at room temperature by the rate of uric acid formation from xanthine substrate. In a total volume of 1 ml., the incubation mixture contained 50 micromoles of potassium phosphate buffer at pH 7.4, 0.05 micromoles of xanthine and 0.01 units of enzyme preparation (chromatographically purified milk xanthine oxidase, grade III, obtained from Sigma Chemical Company, St. Louis, Mo.). The absorbence change at 292 nm was recorded by a Gilford recording spectrophotometer and the uric acid formed was calculated using an extinction coefficient of 12 mM^-1 Cm^-1 at 292 nm.

Another data set deals with plasma uric acid. Briefly: in vivo lowering of plasma uric acid in rats, oral (ED50). The conditions noted are these: Rattus norvegicus, read-out: ED50 (dose which reduces plasma level of uric acid by one-half). On the procedure: (§1) All of the compounds corresponding to formula I above which applicants have prepared are active in vivo in lowering plasma uric acid levels. […] The first method, the spectrofluorometric method, was modified from the procedure of Sumi et al., Clinica. Chimica. Acta., 73, 233 (1976). Rats were sacrificed by decapitation and their blood collected into vacutainer tubes containing heparin via heparinized glass funnels. The blood was centrifuged for 8 minutes at 4000 rpm after which time the plasma was separated and diluted 1:1 with water. Plasma protein was precipitated by addition of acetic acid to a final concentration of 0.007 molar and boiling the resulting mixture for 5 minutes in Sorval tubes. Clear deproteinized plasma was obtained after centrifugation of the resulting plasma for 30 minutes at 25,000 rpm. Uric acid was assayed as follows: 0.2 ml. aliquots of the clear deproteinized plasma were mixed with 120λ of uricase (0.045 mu/ml.) and incubated for 30 minutes at 27° C. 1.0 ml. of a p-hydroxyphenylacetic acid buffer was added. Samples obtained from feeding rats or dogs serial doses of the compound under test were incubated with the above buffer solution for 30 minutes at 27° C. Fluorescence of the solution was measured in quartz tubes using an Aminco Bowman-Spectrofluorimeter having excitation of 321 nm and emission at 412 nm. Five uric acid standards from 6-30 micromolar were assayed for each test and each standard yielded a linear curve.
The second method was called the HPLC-EC Detection method. Here, blood plasma was collected from rats as described above and from dogs in heparinized syringes from the cefalic vein in the forearm and centrifuged with Sure-Sep to separate plasma. Deproteninized plasma was prepared in each instance by first diluting one volume of plasma with one volume of an internal standard solution, 4 mcg./ml., and then addition of two volumes of 5% trichloroacetic acid. Standards were added to control plasma in the range of 0-8 mcg./ml. of uric acid. Samples obtained by feeding graded doses of drug under test to dogs or rats were mixed for 30 seconds and then centrifuged in an Eppendorf microcentrifuge. Supernates were diluted 1:10 in column buffer and assayed for uric acid. Internal standards used were 3-methyluric acid for the rat samples and 3,9-dimethyluric acid for dog samples. Assays were performed as follows using a Bioanalytic Systems Inc. LC-44 analyser and an electrochemical detector system based on an Altex model 110 pump coupled with a CP-O carbon paste electrodetector. Samples for assay were put into a DuPont 834 autosampler and automatically injected into a laboratory packed stainless steel column (4.1 mm id, 1/4" od 25 cm.1) containing reverse phase packing (sperisorb. O.D. 5μ Regis Chemical Co.). The column buffers employed were 0.1 M disodium phosphate, 0.05 M citric acid and 10% methanol for rat samples; 0.1 M disodium phosphate, 10% methanol and citric acid titrated at pH 6.5 for dog samples. The same internal standards were employed as before. Retention times for uric acid, 3-methyluric acid and 3,9-dimethyluric acid were established. Uric acid levels were then calculated from peak areas by computer analysis. Table V which follows gives the oral ED50 in rats for a group of the preferred compounds of this invention (those in which the 3-position of the isothiazole ring carries a 3-trifluoromethylphenyl group). […]

Data set [1] is described as follows: oral acute toxicity in mice (LD50). As to conditions: mouse, in vivo; for LD50: oral, mice, read-out: LD50 (dose which kills one-half of the animals); for therapeutic index (LD50/ED50): oral LD50 mice / oral ED50 rats, read-out: Ratio of LD50 to ED50. An excerpt: The compounds represented by the above formula are also relatively non-toxic. In column 3 of Table V are listed the oral LD50 for mice in mg. per kg. for each of the compounds of column 1 (dose which kills one-half of the animals). Finally, column 4 in Table V gives the ratio of LD50 to ED50. It will be seen that the ratio of the LD50 to the ED50 is quite high, giving a substantial margin of safety for using the compounds of this invention in treating gout in mammals, particularly humans.

Data set [2] in a line: oral administration of ester and amides, percent inhibition in vivo. On the procedure:
as §1
The second method was called the HPLC-EC Detection method. Here, blood plasma was collected from rats as described above and from dogs in heparinized syringes from the cefalic vein in the forearm and centrifuged with Sure-Sep to separate plasma. Deproteninized plasma was prepared in each instance by first diluting one volume of plasma with one volume of an internal standard solution, 4 mcg./ml., and then addition of two volumes of 5% trichloroacetic acid. Standards were added to control plasma in the range of 0-8 mcg./ml. of uric acid. […] Uric acid levels were then calculated from peak areas by computer analysis. […]

[3] abbreviates: milk xanthine oxidase 0.01 units, 0.05 micromoles xanthine in 1 ml, pH 7.4, room temperature, 292 nm, read-out: I50 (concentration of drug which inhibits 50% of the oxidation of xanthine to uric acid by the xanthine oxidase preparation) (converted).

T1 sequence (P80457 whole entry): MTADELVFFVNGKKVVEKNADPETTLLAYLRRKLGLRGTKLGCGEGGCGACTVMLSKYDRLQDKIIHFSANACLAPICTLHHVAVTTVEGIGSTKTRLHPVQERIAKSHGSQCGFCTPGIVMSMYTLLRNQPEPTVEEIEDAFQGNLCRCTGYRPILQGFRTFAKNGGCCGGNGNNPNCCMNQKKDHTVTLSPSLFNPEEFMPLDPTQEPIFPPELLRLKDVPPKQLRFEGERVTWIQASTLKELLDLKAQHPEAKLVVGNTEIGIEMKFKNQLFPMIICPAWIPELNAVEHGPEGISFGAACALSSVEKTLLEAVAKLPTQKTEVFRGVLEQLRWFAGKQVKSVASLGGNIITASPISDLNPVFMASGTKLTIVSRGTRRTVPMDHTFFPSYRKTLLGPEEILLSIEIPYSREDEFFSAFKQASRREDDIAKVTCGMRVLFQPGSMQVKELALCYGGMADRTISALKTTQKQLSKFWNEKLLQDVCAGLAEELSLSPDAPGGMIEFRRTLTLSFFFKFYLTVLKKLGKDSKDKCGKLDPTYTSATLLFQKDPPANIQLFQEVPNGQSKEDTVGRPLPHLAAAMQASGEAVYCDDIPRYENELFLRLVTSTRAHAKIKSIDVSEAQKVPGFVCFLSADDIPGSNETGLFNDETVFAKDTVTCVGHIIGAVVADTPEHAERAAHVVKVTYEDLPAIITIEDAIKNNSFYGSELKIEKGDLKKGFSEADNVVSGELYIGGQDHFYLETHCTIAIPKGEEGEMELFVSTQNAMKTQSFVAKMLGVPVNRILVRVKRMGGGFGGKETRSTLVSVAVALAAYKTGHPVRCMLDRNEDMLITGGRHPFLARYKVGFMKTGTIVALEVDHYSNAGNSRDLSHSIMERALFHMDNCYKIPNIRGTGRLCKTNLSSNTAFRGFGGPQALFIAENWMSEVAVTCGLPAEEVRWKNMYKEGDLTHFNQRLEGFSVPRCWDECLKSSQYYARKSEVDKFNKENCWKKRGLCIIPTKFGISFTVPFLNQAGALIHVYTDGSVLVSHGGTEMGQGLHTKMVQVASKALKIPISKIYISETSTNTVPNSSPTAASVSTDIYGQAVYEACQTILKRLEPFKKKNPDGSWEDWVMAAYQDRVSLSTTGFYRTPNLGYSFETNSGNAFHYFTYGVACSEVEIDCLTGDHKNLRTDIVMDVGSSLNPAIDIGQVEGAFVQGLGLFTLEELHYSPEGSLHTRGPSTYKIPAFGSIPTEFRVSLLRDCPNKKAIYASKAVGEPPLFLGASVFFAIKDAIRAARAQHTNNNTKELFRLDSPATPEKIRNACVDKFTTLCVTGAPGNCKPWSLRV

For `Nc1c(-c2cccc(C(F)(F)F)c2)nsc1C(=O)O` [R=3-CF3, R^1=H, 3-(3-trifluoromethylphenyl)-4-amino-5-isothiazolecarboxylic acid], on xanthine oxidase (setting [3]), the IC50 is 76.3 nM. Besides, in the data set on plasma uric acid, the ED50 came to 17.5 mg/kg. For the same compound, the LD50 in data set [1] came to 798 ± 66 mg/kg.

Consider `O=C(O)c1snc(-c2cccc(C(F)(F)F)c2)c1Br` [R=3-CF3, X=Br, 3-(3-trifluoromethylphenyl)-4-bromo-5-isothiazolecarboxylic acid], for which the IC50 on xanthine oxidase is 51.1 nM. The ED50 in the data set with plasma uric acid was determined as 5.2 mg/kg. In data set [1], the therapeutic index (LD50/ED50) was around 50 and the LD50 was around 260 mg/kg.

At xanthine oxidase, `O=C(O)c1snc(-c2cccc(C(F)(F)F)c2)c1Cl` [R=3-CF3, X=Cl, 3-(3-trifluoromethylphenyl)-4-chloro-5-isothiazolecarboxylic acid] gave an IC50 of 32.5 nM. Also, the ED50 with plasma uric acid stood at 6.4 mg/kg. Further, in data set [1], the therapeutic index (LD50/ED50) is 21.6 and the LD50 was determined as 138 ± 12 mg/kg.

Take `O=C(O)c1cc(-c2cccc(C(F)(F)F)c2)ns1` [R=3-CF3, X=H, 3-(3-trifluoromethylphenyl)-5-isothiazolecarboxylic acid]: at xanthine oxidase (setting [3]), the IC50 is 54.9 nM. The ED50 with plasma uric acid is 15 mg/kg. Besides, in data set [1], the therapeutic index (LD50/ED50) came to 13.4 and the LD50 was found to be 201 ± 13 mg/kg.

For `O=C(O)c1snc(-c2cccc(C(F)(F)F)c2)c1O` [R=3-CF3, X=OH, 3-(3-trifluoromethylphenyl)-4-hydroxy-5-isothiazolecarboxylic acid], the IC50 on xanthine oxidase (setting [3]) is 25.6 nM. The ED50 with plasma uric acid was 18 mg/kg. Besides, in data set [1], the therapeutic index (LD50/ED50) was found to be 40 and the LD50 amounted to 727 ± 35 mg/kg.

In the case of `NC(=O)c1snc(-c2cccc(C(F)(F)F)c2)c1N` [R=NH2, 3-(3-trifluoromethylphenyl)-4-amino-5-isothiazolecarboxamide], in data set [2] (oral dosage 50 mg.kg), the “Percent Inhibition” value stood at 13%.

Regarding `CNC(=O)c1snc(-c2cccc(C(F)(F)F)c2)c1N` [R=NHCH3, N-methyl 3-(3-trifluoromethylphenyl)-4-amino-5-isothiazolecarboxamide], the “Percent Inhibition” value in data set [2] (oral dosage 25 mg.kg) worked out at 32%.

For `COC(=O)c1snc(-c2cccc(C(F)(F)F)c2)c1N` [R=OCH3, Methyl 3-(3-trifluoromethylphenyl)-4-amino-5-isothiazolecarboxylate], the “Percent Inhibition” value in data set [2] (oral dosage 25 mg.kg) was 64%.

What is called ED50 is the midpoint of the dose-response relation. Usually LD50 stands for the dose expected to kill half of the subjects tested.
